Results published in ChEMBL document CHEMBL1201862, “PubChem BioAssay data set” (2004).
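Cells were grown in 96-well plates and exposed to each compound for 48 hours at five concentrations; endpoints were interpolated linearly between bracketing concentrations, or set to the highest concentration if not reached. The concentration for 50% growth inhibition is given as GI50.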 Calls of active or inactive are those of the source. No stated cut-off is given here; in the data, active = GI50 up to about 1.1 µM and inactive = higher.

Key:
Assay in all cases: inhibition of tumour cell growth, NCI panel, 48 h
[1] = test system: RPMI-8226
[2] = test system: M14
[3] = test system: NCI-H226
[4] = test system: SK-MEL-28
[5] = test system: TK-10
[6] = test system: EKVX
[7] = test system: OVCAR-4
[8] = test system: SK-MEL-5
[9] = test system: OVCAR-8
[10] = test system: OVCAR-5
[11] = test system: SR
[12] = test system: SF-268
[13] = test system: PC-3
[14] = test system: MCF7
[15] = test system: A549
[16] = test system: NCI-H460
[17] = test system: UACC-257
[18] = test system: NCI-H23
[19] = test system: SF-295
[20] = test system: CAKI-1

Measured: GI50

O=C(O)C(C(C(=O)O)P(=O)(O)O)P(=O)(O)O (stereo unspecified)
inactive: [1] > 100 µM | [2] > 100 µM | [3] > 100 µM | [4] > 100 µM | [5] > 100 µM | [6] > 100 µM | [7] > 100 µM | [8] > 100 µM | [9] > 100 µM | [10] > 100 µM | [11] > 100 µM | [12] > 100 µM | [13] > 100 µM | [14] > 100 µM | [15] > 100 µM

OCCCc1ccc2c(c1)[C@H](CO)[C@@H](c1ccc(O)cc1)O2
inactive: [1] 26 µM | [16] > 100 µM | [2] > 100 µM | [3] > 100 µM | [17] 46 µM | [4] 36.4 µM | [18] 35.8 µM | [5] > 100 µM | [6] > 100 µM | [7] 16.8 µM | [8] 18.6 µM | [9] > 100 µM | [10] > 100 µM | [19] > 100 µM | [11] 33.6 µM | [12] > 100 µM | [13] 50.4 µM | [14] > 100 µM | [15] > 100 µM

N#CSC#CCCC#CSC#N
inactive: [16] 22.2 µM | [2] 12.9 µM | [3] 25.1 µM | [17] 16.9 µM | [4] 29.4 µM | [18] 20.6 µM | [5] 17.9 µM | [6] 17.7 µM | [7] 27.1 µM | [8] 18.2 µM | [9] 25.4 µM | [10] 20.6 µM | [19] 18.3 µM | [20] 19 µM | [11] 7.21 µM | [12] 30.1 µM | [13] 20.9 µM | [14] 20.7 µM | [15] 19.6 µM

O=[N+]([O-])c1cc(Cl)ccc1Sc1ccccc1
inactive: [1] > 100 µM | [16] 75 µM | [2] > 100 µM | [3] 34.8 µM | [17] > 100 µM | [4] > 100 µM | [18] > 100 µM | [5] > 100 µM | [6] > 100 µM | [7] > 100 µM | [8] 75.2 µM | [9] > 100 µM | [10] > 100 µM | [19] > 100 µM | [20] 93.8 µM | [12] > 100 µM | [13] > 100 µM | [14] > 100 µM | [15] > 100 µM

CCOC(=O)c1nnn(CCCCO)c1C(=O)OCC
inactive: [16] > 100 µM | [3] > 100 µM | [17] > 100 µM | [4] > 100 µM | [18] > 100 µM | [5] > 100 µM | [6] > 100 µM | [7] > 100 µM | [8] > 100 µM | [9] > 100 µM | [19] > 100 µM | [20] > 100 µM | [11] > 100 µM | [12] > 100 µM | [13] > 100 µM | [14] > 100 µM | [15] > 100 µM

C=CCOC1(CC=C)C(=O)OC2C(O)COC21O (stereo unspecified)
inactive: [16] > 100 µM | [2] > 100 µM | [3] > 100 µM | [17] > 100 µM | [4] > 100 µM | [18] > 100 µM | [5] > 100 µM | [6] > 100 µM | [7] > 100 µM | [8] > 100 µM | [9] > 100 µM | [10] > 100 µM | [19] > 100 µM | [20] > 100 µM | [11] > 100 µM | [12] > 100 µM | [13] > 100 µM | [14] > 100 µM | [15] > 100 µM

O=Cc1cc2c(cc1-c1c(C=O)ccc3c1OCO3)OCO2
inactive: [1] > 10 µM | [2] > 10 µM | [17] > 10 µM | [4] > 10 µM | [18] > 10 µM | [5] > 10 µM | [7] > 10 µM | [8] > 10 µM | [9] > 10 µM | [19] > 10 µM | [20] > 10 µM | [11] > 10 µM | [12] > 10 µM | [13] > 10 µM | [14] > 10 µM | [15] > 10 µM

COC(=O)/C=C(\C)CC/C=C(\C)CCC(O)C(C)(C)O (stereo unspecified)
inactive: [16] 19.8 µM | [2] 27.1 µM | [3] 28.8 µM | [17] 36.4 µM | [4] 17.9 µM | [18] 29.2 µM | [5] 45 µM | [6] 41.9 µM | [7] 48.5 µM | [8] 16.6 µM | [9] 25.1 µM | [10] 60.4 µM | [19] 23.1 µM | [20] 20.4 µM | [11] 17.8 µM | [13] 14.8 µM | [14] 37 µM | [15] 34.8 µM

N#CC1=C(N2CCOCC2)CCC1
inactive: [1] > 100 µM | [2] > 100 µM | [3] > 100 µM | [17] > 100 µM | [18] > 100 µM | [5] > 100 µM | [6] > 100 µM | [7] > 100 µM | [8] > 100 µM | [9] > 100 µM | [10] > 100 µM | [19] > 100 µM | [20] > 100 µM | [11] > 100 µM | [12] > 100 µM | [13] > 100 µM | [14] > 100 µM | [15] > 100 µM

CCOC(=O)c1ccc(NCc2ccc3oc(=O)c(-c4ccccc4)nc3c2)cc1
inactive: [16] > 100 µM | [2] 31.3 µM | [3] 94.2 µM | [17] 20.3 µM | [4] 30.7 µM | [18] 19.1 µM | [6] 52.8 µM | [7] 18 µM | [8] 23.6 µM | [9] 18.8 µM | [10] > 100 µM | [19] > 100 µM | [20] 5.2 µM | [11] 34.9 µM | [12] 64.1 µM | [13] 45.2 µM | [14] 15.8 µM | [15] 68.5 µM

C=CCN1C(=O)/C(=C/c2ccccc2)N=C1SC1OC(COC(C)=O)C(OC(C)=O)C(OC(C)=O)C1OC(C)=O (stereo unspecified)
inactive: [1] 24.4 µM | [16] 42.8 µM | [2] 30 µM | [17] 27.9 µM | [4] 26.1 µM | [18] 24.9 µM | [5] 72.8 µM | [6] 15.7 µM | [7] 27.2 µM | [9] 29.5 µM | [10] 26 µM | [19] 50.1 µM | [20] 16.3 µM | [11] 4.86 µM | [12] 21.4 µM | [13] 16.5 µM | [14] 28.5 µM | [15] 34 µM

CC(C)(C)OC(=O)N/N=C(/N)Cc1ccccc1
inactive: [1] > 100 µM | [2] > 100 µM | [3] > 100 µM | [17] > 100 µM | [4] > 100 µM | [18] > 100 µM | [5] > 100 µM | [6] > 100 µM | [7] > 100 µM | [8] > 100 µM | [9] > 100 µM | [10] > 100 µM | [19] > 100 µM | [20] > 100 µM | [11] > 100 µM | [12] > 100 µM | [13] > 100 µM | [14] > 100 µM | [15] > 100 µM

Cc1cc(C)c(S(=O)(=O)N[C@@H](/C=C(\Br)CO)C(C)C)c(C)c1
inactive: [1] 21.6 µM | [16] 27.7 µM | [2] 30.5 µM | [17] 21.5 µM | [4] 24.9 µM | [18] 33 µM | [5] 34.5 µM | [6] 35.6 µM | [8] 15.8 µM | [9] 33.7 µM | [10] 34.3 µM | [19] 30.2 µM | [20] 33.2 µM | [11] 25.1 µM | [12] 30.7 µM | [13] 17.2 µM | [14] 19.6 µM | [15] 30.8 µM

COc1cc([C@H]2Oc3c(OC)cc(CCCO)cc3[C@@H]2CO)ccc1O [DIHYDRODEHYDRODICONIFERY ALCOHOL]
inactive: [1] 55.1 µM | [16] > 100 µM | [2] > 100 µM | [3] > 100 µM | [17] 43.4 µM | [4] > 100 µM | [18] 54.5 µM | [5] > 100 µM | [6] > 100 µM | [7] 76.4 µM | [8] 39 µM | [9] > 100 µM | [10] > 100 µM | [19] > 100 µM | [11] > 100 µM | [12] > 100 µM | [13] > 100 µM | [14] 37.2 µM | [15] > 100 µM

S=P(N1CC1)(N1CC1)N1CC1 [THIOTEPA]
inactive: [1] 176 µM | [16] 5.33 µM | [2] 72.1 µM | [3] 110 µM | [17] 134 µM | [4] 186 µM | [18] 36.1 µM | [5] 333 µM | [6] 234 µM | [7] 188 µM | [8] 97.9 µM | [9] 110 µM | [10] 147 µM | [19] 33.1 µM | [20] 30.3 µM | [12] 39.4 µM | [13] 217 µM | [14] 30.7 µM | [15] 50.4 µM
